From patent US12285455B2, “Controlled-release and stratified cyclodextrin inclusion complex vehicles” (CZAP RESEARCH AND DEVELOPMENT, LLC., priority 2016, dated 2025)

System: myelofibrosis
Experiment: treatment of myelofibrosis, case history
Type: in vivo, human
Settings: following initiation of treatment; approximately every 10 days before treatment
Method: This example illustrates the treatment of symptoms associated with myelofibrosis. A patient suffering from myelofibrosis was treated with a quercetin CD formulation. The formulation was prepared from a powder of quercetin (Glanbia Nutritionals) formed as an inclusion complex with gamma cyclodextrin, dried and mixed with amylase powder. At the initiation of quercetin CD treatment, the patient was in need of blood transfusions approximately every 10 days. Following initiation of the quercetin CD treatment, the patient was able to go 20 days between transfusions.

In the case of `O=c1c(O)c(-c2ccc(O)c(O)c2)oc2cc(O)cc(O)c12` [quercetin], the “interval between blood transfusions” value is reported as “did not get this result”.
